From patent US12570642B2, “GLP-IR modulating compounds” (Gilead Sciences, Inc., priority 2021, dated 2026)

Molecular target: GLP-1R (Homo sapiens, UniProt P43220)
Assay: GLP-1R Activation - cAMP Assay
Type: cell-based
Conditions: each compound run on one of the two cAMP assays (Assay 1 or Assay 2, not specified)
How it was run: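 cAMP rise read by HTRF after 30 min agonist exposure (10-point titration, 37 °C) in HBSS/20 mM Hepes/0.1% BSA, following 1 h pre-incubation. Cells: stable GLP-1R CHO line, 1,000/well, seeded overnight. Sigmoidal fit of response vs log concentration gives EC50.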

[1] = cAMP increase in CHO cells stably expressing GLP-1R

GLP-1R, sequence (P43220 24-463): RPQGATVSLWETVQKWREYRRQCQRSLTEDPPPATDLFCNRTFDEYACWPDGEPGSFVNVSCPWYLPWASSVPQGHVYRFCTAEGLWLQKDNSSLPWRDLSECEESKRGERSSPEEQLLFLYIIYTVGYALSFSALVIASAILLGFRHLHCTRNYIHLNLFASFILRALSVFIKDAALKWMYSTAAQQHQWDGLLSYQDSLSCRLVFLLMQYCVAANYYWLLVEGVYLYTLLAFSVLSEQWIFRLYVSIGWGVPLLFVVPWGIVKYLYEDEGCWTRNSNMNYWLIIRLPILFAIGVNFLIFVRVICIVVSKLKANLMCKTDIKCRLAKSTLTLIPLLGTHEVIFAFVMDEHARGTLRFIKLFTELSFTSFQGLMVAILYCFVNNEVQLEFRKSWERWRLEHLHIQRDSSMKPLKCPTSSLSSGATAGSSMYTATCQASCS

`COCCn1c(Cc2cc(F)c(-c3cccc(OCc4cnc(-n5nnc6c5CCCC6)cc4Cl)n3)cc2F)nc2ccc(C(=O)O)cc21` [Example 568, 2-(4-(6-((4-chloro-6-(4,5,6,7-tetrahydro-1H-benzo[d][1,2,3]triazol-1-yl)pyridin-3-yl)methoxy)pyridin-2-yl)-2,5-difluorobenzyl)-1-(2-methoxyethyl)-1H-benzo[d]imidazole-6-carboxylic acid] showed an EC50 [1] of 1.56 nM.

`COC[C@]1(C)COCC1n1c(Cc2cc(F)c(-c3cccc(OCc4ccc(Cl)cc4F)n3)cc2F)nc2ccc(C(=O)O)cc21` (stereo in doubt) [Example 549, 2-(4-(6-((4-chloro-2-fluorobenzyl)oxy)pyridin-2-yl)-2,5-difluorobenzyl)-1-((3R,4S)-4-(methoxymethyl)-4-methyltetrahydrofuran-3-yl)-1H-benzo[d]imidazole-6-carboxylic acid] was tested, and the EC50 [1] was 0.727 nM.

`CC1(C)COC[C@H]1n1c(Cc2cc(F)c(-c3ccnc(OCc4ccc(Cl)cc4)n3)cc2F)nc2ccc(C(=O)O)cc21` [Example 231, (S)-2-(4-(2-((4-chlorobenzyl)oxy)pyrimidin-4-yl)-2,5-difluorobenzyl)-1-(4,4-dimethyltetrahydrofuran-3-yl)-1H-benzo[d]imidazole-6-carboxylic acid] showed an EC50 [1] of 0.049 nM.

Work on `CC(C)(C)OC(=O)N[C@@H]1COC[C@@H]1n1c(Cc2cc(F)c(-c3cccc(OCc4ccc(C#N)cc4F)n3)cc2F)nc2ccc(C(=O)O)cc21` (racemic) [Example 72, 1-((3R,4S)-4-((tert-butoxycarbonyl)amino)tetrahydrofuran-3-yl)-2-(4-(6-((4-cyano-2-fluorobenzyl)oxy)pyridin-2-yl)-2,5-difluorobenzyl)-1H-benzo[d]imidazole-6-carboxylic Acid] yielded an EC50 ([…]) of 37 nM.

Work on `CC1(C)COCC1n1c(Cc2cc(F)c(-c3cccc(OCc4ccc(C#N)cc4F)n3)cc2F)nc2c(C#CC3CC3)cc(C(=O)O)cc21` (centres unmarked) [Example 48, 2-(4-(6-((4-cyano-2-fluorobenzyl)oxy)pyridin-2-yl)-2,5-difluorobenzyl)-4-(cyclopropylethynyl)-1-(4,4-dimethyltetrahydrofuran-3-yl)-1H-benzo[d]imidazole-6-carboxylic Acid] yielded an EC50 [1] of 0.21 nM.

For `CC1(C)COCC1n1c(Cc2cc(F)c(-c3cccc(OCc4ccc(C#N)cc4F)n3)cc2F)nc2ccc(C(=O)O)c(F)c21` (centres unmarked) [Example 166, 2-(4-(6-((4-cyano-2-fluorobenzyl)oxy)pyridin-2-yl)-2,5-difluorobenzyl)-1-(4,4-dimethyltetrahydrofuran-3-yl)-7-fluoro-1H-benzo[d]imidazole-6-carboxylic Acid], the EC50 [1] was 0.222 nM.

With `COC(=O)N1C[C@@H](OC)[C@@H](n2c(Cc3cc(F)c(-c4cccc(OCc5ccc(C#N)cc5F)n4)cc3F)nc3ccc(C(=O)O)cc32)C1` [Example 87, 2-(4-(6-((4-cyano-2-fluorobenzyl)oxy)pyridin-2-yl)-2,5-difluorobenzyl)-1-((3S,4R)-4-methoxy-1-(methoxycarbonyl)pyrrolidin-3-yl)-1H-benzo[d]imidazole-6-carboxylic Acid] the EC50 ([…]) was 22.5 nM.

`COCCn1c(Cc2nc(N)c(-c3cccc(OCc4ccc(C#N)cc4F)n3)cc2F)nc2ccc(C(=O)O)cc21` [Example 49] was tested, and the EC50 [1] was 45.6 nM.

`CC1(C)COC[C@H]1n1c(Cc2cc(F)c(-c3cccc(OCc4ccc(-n5ccnn5)nc4)n3)cc2F)nc2ccc(C(=O)O)cc21` [Example 254, (S)-2-(4-(6-((6-(1H-1,2,3-triazol-1-yl)pyridin-3-yl)methoxy)pyridin-2-yl)-2,5-difluorobenzyl)-1-(4,4-dimethyltetrahydrofuran-3-yl)-1H-benzo[d]imidazole-6-carboxylic acid] gave an EC50 [1] of 0.088 nM.

In the case of `CC1(C)COC[C@H]1n1c(Cc2cc(F)c(-c3cccc(OCc4c(F)cc(Cl)cc4F)n3)cc2F)nc2ccc(C(=O)O)cc21` [Example 489, (S)-2-(4-(6-((4-chloro-2,6-difluorobenzyl)oxy)pyridin-2-yl)-2,5-difluorobenzyl)-1-(4,4-dimethyltetrahydrofuran-3-yl)-1H-benzo[d]imidazole-6-carboxylic acid], the EC50 [1] is reported as 0.342 nM.

With `COCCn1c(Cc2cc(F)c(-c3cc(N)nc(OCc4ccc(C#N)cc4F)n3)cc2F)nc2ccc(C(=O)O)cc21` [Example 45, 2-(4-(6-amino-2-((4-cyano-2-fluorobenzyl)oxy)pyrimidin-4-yl)-2,5-difluorobenzyl)-1-(2-methoxyethyl)-1H-benzo[d]imidazole-6-carboxylic Acid] the EC50 [1] was 16.7 nM.

For `COCCn1c(Cc2cc(F)c(-c3cccc(OCc4cnc(-c5cnn(C)c5)cn4)n3)cc2F)nc2ccc(C(=O)O)cc21` [Example 38, 2-(2,5-difluoro-4-(6-((5-(1-methyl-1H-pyrazol-4-yl)pyrazin-2-yl)methoxy)pyridin-2-yl)benzyl)-1-(2-methoxyethyl)-1H-benzo[d]imidazole-6-carboxylic Acid], the EC50 [1] was 4.02 nM.

For `CC(F)(F)c1ccc(COc2cccc(-c3cc(F)c(Cc4nc5ccc(C(=O)O)cc5n4[C@@H]4COCC4(C)C)cc3F)n2)nc1` [Example 195, (S)-2-(4-(6-((5-(1,1-difluoroethyl)pyridin-2-yl)methoxy)pyridin-2-yl)-2,5-difluorobenzyl)-1-(4,4-dimethyltetrahydrofuran-3-yl)-1H-benzo[d]imidazole-6-carboxylic acid], the EC50 [1] was 0.539 nM.

`Cn1nnc2cc(COc3cccc(-c4cc(F)c(Cc5nc6ccc(C(=O)O)cc6n5C[C@@H]5CCO5)cc4F)n3)ccc21` [Example 523, (S)-2-(2,5-difluoro-4-(6-((1-methyl-1H-benzo[d][1,2,3]triazol-5-yl)methoxy)pyridin-2-yl)benzyl)-1-(oxetan-2-ylmethyl)-1H-benzo[d]imidazole-6-carboxylic acid] gave an EC50 [1] of 0.362 nM.

For `N#Cc1ccc(COc2cccc(-c3cc(F)c(Cc4nc5ccc(C(=O)O)cc5n4C4CCCC45CC5)cc3F)n2)c(F)c1` (centres unmarked) [Example 63, 2-(4-(6-((4-cyano-2-fluorobenzyl)oxy)pyridin-2-yl)-2,5-difluorobenzyl)-1-(spiro[2.4]heptan-4-yl)-1H-benzo[d]imidazole-6-carboxylic Acid], the EC50 [1] was 2.55 nM.

Work on `CC1(C)COC[C@H]1n1c(Cc2c(F)cc(-c3cccc(OCc4ccc(Cl)cc4F)n3)c(F)c2F)nc2c(F)cc(C(=O)O)cc21` [Example 242, (S)-2-(4-(6-((4-chloro-2-fluorobenzyl)oxy)pyridin-2-yl)-2,3,6-trifluorobenzyl)-1-(4,4-dimethyltetrahydrofuran-3-yl)-4-fluoro-1H-benzo[d]imidazole-6-carboxylic acid] yielded an EC50 [1] of 0.02 nM.

`CC1(C)COC[C@H]1n1c(Cc2cc(F)c(-c3cccc(OCc4ccc(-c5cnn(C(F)F)c5)cc4F)n3)cc2F)nc2ccc(C(=O)O)cc21` [Example 443, (S)-2-(4-(6-((4-(1-(difluoromethyl)-1H-pyrazol-4-yl)-2-fluorobenzyl)oxy)pyridin-2-yl)-2,5-difluorobenzyl)-1-(4,4-dimethyltetrahydrofuran-3-yl)-1H-benzo[d]imidazole-6-carboxylic acid] gave an EC50 [1] of 0.21 nM.

For `N#Cc1ccc(COc2cccc(-c3cc(F)c(Cc4nc5ccc(C(=O)O)cc5n4[C@@H]4CO[C@@H]5CNC[C@H]45)cc3F)n2)c(F)c1` [Example 80, 2-(4-(6-((4-cyano-2-fluorobenzyl)oxy)pyridin-2-yl)-2,5-difluorobenzyl)-1-((3S,3aR,6aS)-hexahydro-2H-furo[2,3-c]pyrrol-3-yl)-1H-benzo[d]imidazole-6-carboxylic Acid], the EC50 [1] was 4.91 nM.

`COCCn1c(Cc2cc(F)c(-c3cccc(OCc4cnc(C)cn4)n3)cc2F)nc2ccc(C(=O)O)cc21` [Example 29, 2-(2,5-difluoro-4-(6-((5-methylpyrazin-2-yl)methoxy)pyridin-2-yl)benzyl)-1-(2-methoxyethyl)-1H-benzo[d]imidazole-6-carboxylic Acid] was tested, and the EC50 [1] was 36 nM.

In the case of `N#Cc1ccc(COc2cccc(-c3cc(F)c(Cc4nc5ccc(C(=O)O)cc5n4[C@H]4CO[C@H]5OCC[C@H]54)cc3F)n2)c(F)c1` [Example 20, 2-(4-(6-((4-cyano-2-fluorobenzyl)oxy)pyridin-2-yl)-2,5-difluorobenzyl)-1-((3R,3aS,6aR)-hexahydrofuro[2,3-b]furan-3-yl)-1H-benzo[d]imidazole-6-carboxylic Acid], the EC50 [1] is reported as 0.35 nM.

`COCCn1c(Cc2cc(F)c(-c3cccc(OCc4ccc(-c5ncnn5C)cc4F)n3)cc2F)nc2ccc(C(=O)O)cc21` [Example 112] showed an EC50 [1] of 23 nM.

Work on `COCCn1c(Cc2c(F)cc(-c3cccc(OCc4ccc(C#N)cc4F)n3)c3nccn23)nc2ccc(C(=O)O)cc21` [Example 50] yielded an EC50 [1] of 5.24 nM.

Molecule `COCCn1c(Cc2cc(F)c(-c3cccc(OCc4cc(F)c(C)cc4F)n3)cc2F)nc2ccc(C(=O)O)cc21` [Example 28, 2-(4-(6-((2,5-difluoro-4-methylbenzyl)oxy)pyridin-2-yl)-2,5-difluorobenzyl)-1-(2-methoxyethyl)-1H-benzo[d]imidazole-6-carboxylic Acid] has an EC50 [1] of 1.46 nM.

For `COCCn1c(Cc2cc(F)c(-c3cccc(OCc4ccc(-c5ccc(C)nc5)cc4F)n3)cc2F)nc2ccc(C(=O)O)cc21` [Example 105, 2-(2,5-difluoro-4-(6-((2-fluoro-4-(6-methylpyridin-3-yl)benzyl)oxy)pyridin-2-yl)benzyl)-1-(2-methoxyethyl)-1H-benzo[d]imidazole-6-carboxylic Acid], the EC50 [1] was 1.55 nM.

With `Cc1cc(F)c(COc2cccc(-c3cc(F)c(Cc4nc5ccc(C(=O)O)cc5n4[C@@H]4COCC4(C)C)cc3F)n2)cc1F` [Example 456, (S)-2-(4-(6-((2,5-difluoro-4-methylbenzyl)oxy)pyridin-2-yl)-2,5-difluorobenzyl)-1-(4,4-dimethyltetrahydrofuran-3-yl)-1H-benzo[d]imidazole-6-carboxylic acid] the EC50 [1] was 0.332 nM.

For `Cc1cc(Cc2nc3c(F)cc(C(=O)O)cc3n2C[C@@H]2CCO2)c(Cl)cc1-c1ccc(F)c(OCc2ccc(C#N)cc2F)n1` [Example 142, (S)-2-(2-chloro-4-(6-((4-cyano-2-fluorobenzyl)oxy)-5-fluoropyridin-2-yl)-5-methylbenzyl)-4-fluoro-1-(oxetan-2-ylmethyl)-1H-benzo[d]imidazole-6-carboxylic Acid], the EC50 [1] was 0.894 nM.
